ChEMBL document CHEMBL1201862, “PubChem BioAssay data set” (2004)
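Briefly, cells in 96-well plates were exposed to five compound concentrations for 48 h, and endpoints were estimated by linear interpolation. At the GI50, growth is halved.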 Calls of active or inactive are those of the source. Cut-off read from the data, not from the text of the source: active = GI50 up to about 1.1 µM and inactive = higher.

Columns and labels:
Assay in all cases: NCI-60 cell line screen, 48 h
A498 = system: A498
A549 = system: A549
CAKI-1 = system: CAKI-1
M14 = system: M14
MCF7 = system: MCF7
MDA-MB-231 = system: MDA-MB-231
MDA-N = system: MDA-N
MOLT-4 = system: MOLT-4
Malme-3M = system: Malme-3M
NCI/ADR-RES = system: NCI/ADR-RES
RPMI-8226 = system: RPMI-8226
RXF 393 = system: RXF 393
SF-539 = system: SF-539
SK-MEL-28 = system: SK-MEL-28
T47D = system: T47D
TK-10 = system: TK-10
U-251 = system: U-251
HCT-116 = system: HCT-116
UACC-257 = system: UACC-257
UACC-62 = system: UACC-62

Measured: GI50

O=c1[nH]c(=O)n(CCOCP(=O)(O)O)nc1Br
inactive: A498 > 100 µM | A549 > 100 µM | CAKI-1 > 100 µM | M14 > 100 µM | MCF7 > 100 µM | MDA-MB-231 > 100 µM | MDA-N > 100 µM | MOLT-4 > 100 µM | Malme-3M > 100 µM | NCI/ADR-RES > 100 µM | RPMI-8226 > 100 µM | RXF 393 > 100 µM | SF-539 > 100 µM | SK-MEL-28 > 100 µM | T47D > 100 µM | TK-10 > 100 µM | U-251 > 100 µM

O=C1C(Cl)=CC2(C=C1Cl)CCNC1=C2C(=O)c2nc[nH]c2C1=O
inactive: A498 36.6 µM | A549 > 100 µM | CAKI-1 64.4 µM | HCT-116 26 µM | M14 39 µM | MCF7 22.3 µM | MDA-MB-231 35.6 µM | MDA-N 18.5 µM | MOLT-4 26.9 µM | Malme-3M 24.3 µM | NCI/ADR-RES > 100 µM | RPMI-8226 30.5 µM | RXF 393 23.2 µM | SF-539 33.5 µM | SK-MEL-28 33.7 µM | T47D 99.8 µM | TK-10 > 100 µM | U-251 26.5 µM | UACC-257 18.6 µM | UACC-62 18.3 µM

CSC(SC)=C(C(=O)O)P(=O)(O)O
inactive: A498 > 100 µM | A549 > 100 µM | CAKI-1 > 100 µM | HCT-116 > 100 µM | M14 > 100 µM | MCF7 > 100 µM | MDA-MB-231 > 100 µM | MDA-N > 100 µM | MOLT-4 > 100 µM | Malme-3M > 100 µM | NCI/ADR-RES > 100 µM | RXF 393 > 100 µM | SF-539 > 100 µM | SK-MEL-28 > 100 µM | T47D > 100 µM | TK-10 > 100 µM | UACC-257 > 100 µM | UACC-62 > 100 µM

COc1ccc(C=C2C(C)=NN(c3cccc(Cl)c3)C23C(Cl)C(=O)N3c2nc3ccccc3s2)cc1 (stereo not given)
inactive: A498 18.5 µM | CAKI-1 23.2 µM | HCT-116 15.5 µM | M14 17.2 µM | MCF7 17.5 µM | MDA-MB-231 12.9 µM | MDA-N 19.9 µM | MOLT-4 15.9 µM | NCI/ADR-RES 20.3 µM | RPMI-8226 2.82 µM | RXF 393 12.7 µM | SF-539 30.5 µM | SK-MEL-28 9.25 µM | T47D 24.6 µM | TK-10 26.8 µM | U-251 14.6 µM | UACC-257 24.9 µM

C=CCNC1=C2C[C@@H](C)C[C@@H](OC)[C@H](OC(=O)CCCCN)[C@H](C)/C=C(\C)[C@@H](OC(N)=O)[C@H](OC)/C=C\C=C(/C)C(=O)NC(=CC1=O)C2=O
inactive: A498 12.9 µM | A549 11.9 µM | CAKI-1 18.5 µM | HCT-116 13.8 µM | M14 13.4 µM | MCF7 3.77 µM | MDA-MB-231 14.2 µM | MDA-N 8.55 µM | MOLT-4 9.14 µM | Malme-3M 6.71 µM | NCI/ADR-RES > 100 µM | RPMI-8226 9.04 µM | RXF 393 14.8 µM | SK-MEL-28 18.5 µM | T47D 14.8 µM | TK-10 15 µM | U-251 10.9 µM | UACC-257 6.17 µM | UACC-62 14.6 µM

O=C1Nc2ccccc2/C1=N/N=c1\cccc[nH]1
inactive: A498 25.8 µM | A549 48.8 µM | CAKI-1 32.8 µM | HCT-116 11.6 µM | M14 > 100 µM | MCF7 8.17 µM | MDA-MB-231 12.6 µM | MDA-N > 100 µM | MOLT-4 49.3 µM | NCI/ADR-RES 10.2 µM | RPMI-8226 20.6 µM | RXF 393 97.3 µM | SK-MEL-28 > 100 µM | T47D 38.5 µM | TK-10 22.5 µM | U-251 19 µM | UACC-257 41.8 µM | UACC-62 65.5 µM

COC(=O)c1c2c(cc3c1CC1(Cc4cc5c(cc4C1)CCCC5)C3)CCCC2
inactive: A498 > 100 µM | A549 46.3 µM | HCT-116 15.3 µM | M14 > 100 µM | MCF7 > 100 µM | MDA-MB-231 > 100 µM | MDA-N > 100 µM | MOLT-4 > 100 µM | Malme-3M > 100 µM | NCI/ADR-RES > 100 µM | RPMI-8226 > 100 µM | RXF 393 25.8 µM | SF-539 > 100 µM | T47D > 100 µM | TK-10 > 100 µM | U-251 > 100 µM | UACC-257 > 100 µM | UACC-62 > 100 µM

CC(=O)Nc1ncc2c(n1)-c1ccccc1OC2c1ccccc1 (stereo not given)
inactive: A498 20.7 µM | A549 > 100 µM | CAKI-1 26.1 µM | HCT-116 80.9 µM | M14 > 100 µM | MCF7 > 100 µM | MDA-MB-231 21.7 µM | MDA-N > 100 µM | MOLT-4 > 100 µM | NCI/ADR-RES 32.8 µM | RPMI-8226 > 100 µM | RXF 393 17.1 µM | SF-539 13.2 µM | T47D 24.7 µM | TK-10 28.7 µM | U-251 33.1 µM | UACC-257 > 100 µM | UACC-62 14.1 µM
